Test results reported in the NIST ThermoML archive (doi:10.1021/je060271a).

Settings: 283.15 K, Liquid, Vibrating tube method

CCCC(=O)OCC(COC(=O)CCC)(COC(=O)CCC)COC(=O)CCC [pentaerythritol tetrabutyrate]
Settings | mass density [kg/m3]
26946 kPa | 1074.1
26974 kPa | 1074.2
26998 kPa | 1074.3
27022 kPa | 1074.2
27050 kPa | 1074.3
27074 kPa | 1074.2
27098 kPa | 1074.2
27122 kPa | 1074.3
27151 kPa | 1074.2
27174 kPa | 1074.3
27198 kPa | 1074.2
27228 kPa | 1074.3
27248 kPa | 1074.3
27267 kPa | 1074.4
27296 kPa | 1074.4
27330 kPa | 1074.3
27354 kPa | 1074.3
27384 kPa | 1074.5
27408 kPa | 1074.4
27433 kPa | 1074.5
27463 kPa | 1074.4
27488 kPa | 1074.4
27512 kPa | 1074.4
27542 kPa | 1074.4
27566 kPa | 1074.6
27592 kPa | 1074.5
27622 kPa | 1074.5
27646 kPa | 1074.5
27672 kPa | 1074.6
27701 kPa | 1074.7
27726 kPa | 1074.6
27752 kPa | 1074.6
27782 kPa | 1074.5
27808 kPa | 1074.6
27833 kPa | 1074.6
27863 kPa | 1074.6
27889 kPa | 1074.6
27915 kPa | 1074.7
27941 kPa | 1074.7
27972 kPa | 1074.8
27998 kPa | 1074.6
28024 kPa | 1074.7
28049 kPa | 1074.8
28080 kPa | 1074.8
28101 kPa | 1074.7
28127 kPa | 1074.7
28164 kPa | 1074.8
28190 kPa | 1074.8
28217 kPa | 1074.7
28249 kPa | 1074.7
28276 kPa | 1074.8
28303 kPa | 1074.9
28329 kPa | 1074.9
28356 kPa | 1075
28388 kPa | 1074.9
28415 kPa | 1074.9
28447 kPa | 1075
28474 kPa | 1075.1
28500 kPa | 1075
28527 kPa | 1075
28559 kPa | 1075.1
28586 kPa | 1075
28618 kPa | 1075.1
28646 kPa | 1075.1
28674 kPa | 1075.2
28706 kPa | 1075.1
28733 kPa | 1075
28760 kPa | 1075.2
28787 kPa | 1075.2
28820 kPa | 1075.2
28847 kPa | 1075.2
28881 kPa | 1075.2
28908 kPa | 1075.1
28936 kPa | 1075.1
28969 kPa | 1075.2
28985 kPa | 1075.3
28997 kPa | 1075.2
29011 kPa | 1075.2
29026 kPa | 1075.1
29043 kPa | 1075.2
29054 kPa | 1075.3
29088 kPa | 1075.3
29116 kPa | 1075.3
29146 kPa | 1075.2
29150 kPa | 1075.4
29179 kPa | 1075.3
29207 kPa | 1075.3
29240 kPa | 1075.3
29253 kPa | 1075.5
29268 kPa | 1075.4
29296 kPa | 1075.4
29322 kPa | 1075.4
29330 kPa | 1075.5
29357 kPa | 1075.4
29385 kPa | 1075.6
29417 kPa | 1075.4
29442 kPa | 1075.4
29443 kPa | 1075.6
29464 kPa | 1075.4
29471 kPa | 1075.6
29482 kPa | 1075.7
29505 kPa | 1075.5
29534 kPa | 1075.5
29557 kPa | 1075.5
29562 kPa | 1075.6
29590 kPa | 1075.5
29625 kPa | 1075.6
29628 kPa | 1075.6
29649 kPa | 1075.5
29655 kPa | 1075.6
29683 kPa | 1075.6
29711 kPa | 1075.5
29718 kPa | 1075.7
29748 kPa | 1075.7
29778 kPa | 1075.5
29786 kPa | 1075.7
29808 kPa | 1075.6
29843 kPa | 1075.7
29859 kPa | 1075.7
29872 kPa | 1075.7
29901 kPa | 1075.7
29931 kPa | 1075.8
29943 kPa | 1075.7
29966 kPa | 1075.7
29996 kPa | 1075.8
30016 kPa | 1075.8
30031 kPa | 1075.7
30034 kPa | 1075.7
30037 kPa | 1075.8
30045 kPa | 1075.9
30052 kPa | 1075.8
30061 kPa | 1075.8
30091 kPa | 1075.8
30121 kPa | 1075.8
30158 kPa | 1075.9
30189 kPa | 1075.9
30208 kPa | 1075.9
30219 kPa | 1075.9
30250 kPa | 1075.8
30282 kPa | 1076
30285 kPa | 1075.9
30316 kPa | 1076
30325 kPa | 1076
30346 kPa | 1075.9
30381 kPa | 1076
30411 kPa | 1075.9
